{"source": "patent US20070043024A1", "about": "“Azacyclic compounds as inhibitors of sensory neurone specific channels” (priority 2003, published 2007)", "data": [{"molecular_target": "T1, human Nav1.8 (hNav1.8) ion channel (Homo sapiens, UniProt Q9Y5Y9)", "T1 construct": "expressed in transfected cells", "T1 sequence (Q9Y5Y9 whole entry)": "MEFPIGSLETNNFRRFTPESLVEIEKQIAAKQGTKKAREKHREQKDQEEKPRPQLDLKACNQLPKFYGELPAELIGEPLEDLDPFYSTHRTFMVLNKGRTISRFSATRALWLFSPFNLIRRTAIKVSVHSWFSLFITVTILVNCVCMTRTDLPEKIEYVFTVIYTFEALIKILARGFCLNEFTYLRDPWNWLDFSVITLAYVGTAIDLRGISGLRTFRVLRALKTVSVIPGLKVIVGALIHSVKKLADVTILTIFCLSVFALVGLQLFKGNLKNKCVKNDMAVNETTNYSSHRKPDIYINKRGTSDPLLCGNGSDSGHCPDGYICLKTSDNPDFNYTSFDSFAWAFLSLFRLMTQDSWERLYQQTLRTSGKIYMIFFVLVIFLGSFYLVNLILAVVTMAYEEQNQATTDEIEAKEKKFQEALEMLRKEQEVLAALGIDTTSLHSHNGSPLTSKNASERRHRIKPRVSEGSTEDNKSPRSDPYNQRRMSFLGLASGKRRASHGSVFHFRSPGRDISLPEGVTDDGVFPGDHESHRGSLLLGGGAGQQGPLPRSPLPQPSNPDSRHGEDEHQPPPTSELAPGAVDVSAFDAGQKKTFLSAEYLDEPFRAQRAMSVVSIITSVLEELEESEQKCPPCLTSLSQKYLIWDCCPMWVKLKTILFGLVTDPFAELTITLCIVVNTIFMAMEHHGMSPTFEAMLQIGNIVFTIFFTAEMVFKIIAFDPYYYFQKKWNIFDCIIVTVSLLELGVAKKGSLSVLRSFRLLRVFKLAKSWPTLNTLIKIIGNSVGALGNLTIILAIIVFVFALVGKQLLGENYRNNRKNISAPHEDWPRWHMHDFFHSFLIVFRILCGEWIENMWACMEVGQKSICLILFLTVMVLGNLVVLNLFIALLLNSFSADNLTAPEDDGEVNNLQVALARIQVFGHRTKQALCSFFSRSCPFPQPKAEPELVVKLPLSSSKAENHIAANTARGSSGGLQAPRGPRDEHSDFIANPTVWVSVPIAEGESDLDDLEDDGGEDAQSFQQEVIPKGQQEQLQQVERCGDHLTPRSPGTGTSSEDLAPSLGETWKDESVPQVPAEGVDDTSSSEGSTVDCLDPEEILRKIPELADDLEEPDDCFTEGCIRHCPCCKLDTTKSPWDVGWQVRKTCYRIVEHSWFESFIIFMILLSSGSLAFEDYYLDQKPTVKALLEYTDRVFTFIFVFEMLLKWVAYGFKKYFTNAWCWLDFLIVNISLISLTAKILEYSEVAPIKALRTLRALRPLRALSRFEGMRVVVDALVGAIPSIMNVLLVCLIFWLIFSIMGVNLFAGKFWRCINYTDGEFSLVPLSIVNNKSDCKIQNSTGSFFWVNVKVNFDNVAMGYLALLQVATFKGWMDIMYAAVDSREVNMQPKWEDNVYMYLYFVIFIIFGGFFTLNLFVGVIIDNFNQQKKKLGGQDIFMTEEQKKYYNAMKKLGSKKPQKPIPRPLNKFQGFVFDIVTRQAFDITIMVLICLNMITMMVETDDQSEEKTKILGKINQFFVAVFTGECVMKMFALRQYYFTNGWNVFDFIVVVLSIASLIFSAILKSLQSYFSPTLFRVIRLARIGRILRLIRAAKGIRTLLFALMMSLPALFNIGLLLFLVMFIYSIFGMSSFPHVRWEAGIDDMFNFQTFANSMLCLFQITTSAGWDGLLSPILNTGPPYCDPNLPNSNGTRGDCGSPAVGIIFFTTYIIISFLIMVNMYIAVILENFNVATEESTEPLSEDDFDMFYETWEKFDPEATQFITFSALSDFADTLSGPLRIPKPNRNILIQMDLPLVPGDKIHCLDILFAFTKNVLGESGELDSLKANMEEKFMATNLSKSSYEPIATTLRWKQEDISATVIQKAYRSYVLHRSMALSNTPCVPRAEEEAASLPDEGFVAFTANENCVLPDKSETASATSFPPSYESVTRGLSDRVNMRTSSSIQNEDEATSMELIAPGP", "assay": "Inhibition of human Nav1.8 stably expressed in SH-SY-5Y cells (membrane potential dye fluorescence assay)", "assay_type": "cell-based", "details": "not given", "description": "(§1) Inhibition of Human Nav1.8 Stably Expressed in SH-SY-5Y Cells\n(§2) A SH-SY-5Y neuroblastoma cell line stably expressing the human […] (hNav1.8) ion channel was constructed. This cell line has been used to develop a medium to high throughput assay for determining the ability of test compounds to inhibit membrane depolarisation mediated via the hNav1.8 channel.\n(§3) SH-SY-5Y hNav1.8 are grown in adherent monolayer culture using 50:50 Ham's F-12/EMEM tissue culture medium supplemented with 15% (v/v) foetal bovine serum; 2 mM L-glutamine, 1% NEAA and 600 μg·ml^−1 Geneticin sulphate. Cells are removed from the tissue culture flask using trypsin/EDTA and re-plated into black walled, clear bottom 96-well assay plates at 50,000 cells·well^−1 24 hours prior to assay.\n(§4) On the day of assay the cell assay plates are washed to remove cell culture medium using a sodium free assay buffer (145 mM tetramethyl ammonium chloride; 2 mM calcium chloride; 0.8 mM magnesium chloride hexahydrate; 10 mM HEPES; 10 mM glucose; 5 mM potassium chloride, pH 7.4). Fluorescent membrane potential dye solution (FLIPR™ membrane potential dye, Molecular Devices Corporation), containing 10 μM of a pyrethroid to prevent channel inactivation and 250 nM tetrodotoxin (TTX) to reduce interference from TTX-sensitive sodium channels present in the cell line. Test compound, initially dissolved in dimethyl sulfoxide but further diluted in sodium free buffer, is added to achieve the final test concentration range of 100 μM-0.05 μM.\n(§5) Cell plates are incubated for 30 minutes at room temperature to allow equilibration of dye and test compound. Plates are then transferred to a fluorescence plate reader for fluorescence measurement using an excitation wavelength of 530 nm whilst measuring fluorescence emission at 565 nm. Baseline fluorescence levels are first determined before the addition of a sodium containing buffer (220 mM sodium chloride; 2 mM calcium chloride; 0.8 mM magnesium chloride hexahydrate; […]; 10 mM glucose; 5 mM potassium chloride. pH 7.4) to cause membrane depolarisation in those cells where channel block has not been effected (final sodium concentration=72.5 mM). Membrane depolarisation is registered by an increase in fluorescence emission at 565 nm.\n(§6) The change in fluorescence seen in each test well upon the addition of sodium containing buffer is calculated relative to the baseline fluorescence for that well. This figure is then used for calculating the IC50 for each test compound.", "units": {"IC50": "nM"}, "values": [{"molecule": "COc1cccc2c1CN(CC(=O)NCC[S+]([O-])C(c1ccccc1)c1ccccc1)CC2", "note": "(stereo not drawn) [Compound 103, N-[2-(Diphenyl-methanesulfinyl)-ethyl]-2-(8-methoxy-3,4-dihydro-1H-isoquinolin-2-yl)-acetamide]", "IC50": 2250}]}, {"molecular_target": "T1, human Nav1.8 (hNav1.8) ion channel", "assay": "Inhibition of human Nav1.8 stably expressed in SH-SY-5Y cells (membrane potential dye fluorescence assay)", "assay_type": "cell-based", "details": "IC50, Table 1; SH-SY-5Y hNav1.8 cells, inhibition of membrane depolarisation, FLIPR membrane potential dye, 250 nM TTX, test concentration range 100 μM-0.05 μM", "description": "as §1, §2, §3, §4, §5, §6", "units": {"IC50": "nM"}, "values": [{"molecule": "Cc1cnc(C(C)NC(=O)CN2CCc3cccc(O)c3C2)s1", "note": "(stereo not drawn) [Example 29, 2-(8-Hydroxy-3,4-dihydro-1H-isoquinolin-2-yl)-N-[1-(5-methyl-thiazol-2-yl)-ethyl]-acetamide]", "IC50": 15000}]}, {"molecular_target": "T1, human Nav1.8 (hNav1.8) ion channel", "assay": "Inhibition of human Nav1.8 stably expressed in SH-SY-5Y cells (membrane potential dye fluorescence assay)", "assay_type": "cell-based", "details": "Table 1; SH-SY-5Y hNav1.8 cells, inhibition of membrane depolarisation, FLIPR membrane potential dye, 250 nM TTX, test concentration range 100 μM-0.05 μM; read-out: IC50", "description": "as §1, §2, §3, §4, §5, §6", "units": {"IC50": "nM"}, "values": [{"molecule": "O=C(CON=C(c1ccccc1)c1ccccc1)N1CCc2ccccc2C1", "note": "[Example 42, 2-Benzhydrylideneaminooxy-1-(3,4-dihydro-1H-isoquinoline-2-yl)-ethanone]", "IC50": 1050}, {"molecule": "COc1cccc2c1CN(CC(c1ccccc1)c1ccccc1)CC2", "note": "[Example 13, 2-(2,2-Diphenyl-ethyl)-8-methoxy-1,2,3,4-tetrahydro-isoquinoline]", "IC50": 1390}, {"molecule": "c1ccc(C(CN2CCc3ccccc3C2)c2ccccc2)cc1", "note": "[Example 12, 2-(2,2-Diphenyl-ethyl)1,2,3,4-tetrahydro-isoquinoline]", "IC50": 990}, {"molecule": "Oc1cccc2c1CN(CCN(Cc1ccccc1)Cc1ccccc1)CC2", "note": "[Example 8]", "IC50": 410}, {"molecule": "3,4-Dihydro-1H-isoquinoline-2-carbothioic acid benzhydryl-amide [Example 53]", "IC50": 4060}, {"molecule": "c1ccc(CN(CCN2CCc3ccccc3C2)Cc2ccccc2)cc1", "note": "[Example 47, Dibenzyl-[2-(3,4-dihydro-1H-isoquinolin-2-yl)-ethyl]-amine]", "IC50": 470}, {"molecule": "Fc1ccc(C(CCCN2CCc3ccccc3C2)c2ccc(F)cc2)cc1", "note": "[Example 9, 2-[4,4-Bis-(4-fluoro-phenyl)-butyl]-1,2,3,4-tetrahydro-isoquinoline]", "IC50": 430}, {"molecule": "O=C(CN1CCc2ccccc2C1)NC(c1ccccc1)c1ccccc1", "note": "[Example 14, N-Benzyhydryl-2-(3,4-dihydro-1H-isoquinolin-2-yl)-acetamide]", "IC50": 1590}, {"molecule": "COc1cccc2c1CN(C(=O)CN(CC(=O)N1CCc3cccc(OC)c3C1)CC(c1ccccc1)c1ccccc1)CC2", "note": "[Example 36]", "IC50": 2800}]}, {"molecular_target": "T1, human Nav1.8 (hNav1.8) ion channel", "assay": "Inhibition of human Nav1.8 stably expressed in SH-SY-5Y cells (membrane potential dye fluorescence assay)", "assay_type": "cell-based", "details": "Table 2 (compound numbers of the list in the description); SH-SY-5Y hNav1.8 cells, inhibition of membrane depolarisation, FLIPR membrane potential dye, 250 nM TTX, test concentration range 100 μM-0.05 μM; read-out: IC50", "description": "as §1, §2, §3, §4, §5, §6", "units": {"IC50": "nM"}, "values": [{"molecule": "COc1ccc2c(c1)CCCN(CC(=O)N(Cc1ccccc1)Cc1ccccc1)C2", "note": "[Compound 86, N,N-dibenzyl-2-(7-methoxy-1,3,4,5-tetrahydro-benzo[c]azepin-2-yl)-acetamide]", "IC50": 490}, {"molecule": "COc1cccc2c1CN(CC(=O)N1c3ccccc3Sc3ccc(SC)cc31)CC2", "note": "[Compound 159, 2-(8-Methoxy-3,4-dihydro-1H-isoquinolin-2-yl)-1-(2-methylsulfanyl-phenothiazin-10-yl)-ethanone]", "IC50": 20800}, {"molecule": "COc1cccc2c1CN(CC(=O)N1c3ccccc3Sc3ccc(Cl)cc31)CC2", "note": "[Compound 142, 1-(2-Chloro-phenothiazin-10-yl)-2-(8-methoxy-3,4-dihydro-1H-isoquinolin-2-yl)-ethanone]", "IC50": 2090}, {"molecule": "Nc1cccc2c1CN(CC(=O)NCCCC(c1ccccc1)c1ccccc1)C2", "note": "[Compound 100, 2-(4-Amino-1,3-dihydro-isoindol-2-yl)-N-(4,4-diphenyl-butyl)-acetamide]", "IC50": 970}, {"molecule": "COc1cccc2c1CN(CC(=O)NCCC(c1ccccc1)c1ccccc1)C2", "note": "[Compound 88, N-(3,3-diphenyl-propyl)-2-(4-methoxy-1,3-dihydro-isoindol-2-yl)-acetamide]", "IC50": 2090}, {"molecule": "C=CCOc1cccc2c1CN(CC(=O)NCCC(c1ccccc1)c1ccccc1)CC2", "note": "[Compound 97, 2-(8-Allyloxy-3,4-dihydro-1H-isoquinolin-2-yl)-N-(3,3-diphenyl-propyl)-acetamide]", "IC50": 2270}, {"molecule": "Nc1cccc2c1CN(CC(=O)NCCCC(c1ccccc1)c1ccccc1)CC2", "note": "[Compound 109, 2-(8-Amino-3,4-dihydro-1H-isoquinolin-2-yl)-N-(4,4-diphenyl-butyl)-acetamide]", "IC50": 1800}, {"molecule": "COc1cccc2c1CN(CCNC(=O)N1c3ccccc3Oc3ccccc31)CC2", "note": "[Compound 164, Phenoxazine-10-carboxylic acid [2-(8-methoxy-3,4-dihydro-1H-isoquinolin-2-yl)-ethyl]-amide]", "IC50": 710}, {"molecule": "CS(=O)(=O)Nc1cccc2c1CN(CC(=O)N1c3ccccc3Oc3ccccc31)CC2", "note": "[Compound 198, N-[2-(2-Oxo-2-phenoxazin-10-yl-ethyl)-1,2,3,4-tetrahydro-isoquinolin-8-yl]-methanesulfonamide]", "IC50": 1830}, {"molecule": "O=C(CCN1CCc2cccc(O)c2C1)N1c2ccccc2Oc2ccccc21", "note": "[Compound 190, 3-(8-Hydroxy-3,4-dihydro-1H-isoquinolin-2-yl)-1-phenoxazin-10-yl-propan-1-one]", "IC50": 530}, {"molecule": "O=C(CN1CCc2cccc(O)c2C1)N1c2ccccc2Sc2ccccc21", "note": "[Compound 139, 2-(8-Hydroxy-3,4-dihydro-1H-isoquinolin-2-yl)-1-phenothiazin-10-yl-ethanone]", "IC50": 1250}, {"molecule": "COc1cccc2c1CN(CC(=O)N1c3ccccc3[S+]([O-])c3ccccc31)CC2", "note": "[Compound 143, 2-(8-Methoxy-3,4-dihydro-1H-isoquinolin-2-yl)-1-(5-oxo-5H-5lambda*4*-phenothiazin-10-yl)-ethanone]", "IC50": 9590}, {"molecule": "Nc1cccc2c1CN(CCC(=O)NCCC(c1ccccc1)c1ccccc1)CC2", "note": "[Compound 127, 3-(8-Amino-3,4-dihydro-1H-isoquinolin-2-yl)-N-(3,3-diphenyl-propyl)-propionamide]", "IC50": 650}, {"molecule": "COc1cccc2c1CN(CC(=O)N1CC(c3nnc(C)o3)Oc3ccccc31)CC2", "note": "(stereo not drawn) [Compound 187, 2-(8-Methoxy-3,4-dihydro-1H-isoquinolin-2-yl)-1-[2-(5-methyl-[1,3,4]oxadiazol-2-yl)-2,3-dihydro-benzo[1,4]oxazin-4-yl]-ethanone]", "IC50": 19100}, {"molecule": "COc1cccc2c1CN(CC(=O)NCCCC(c1ccccc1)c1ccccc1)CC2", "note": "[Compound 81, N-(4,4-diphenyl-butyl)-2-(8-methoxy-3,4-dihydro-1H-isoquinolin-2-yl)-acetamide]", "IC50": 1400}, {"molecule": "CC(=O)c1ccc2c(c1)N(C(=O)CN1CCc3cccc(O)c3C1)c1ccccc1S2", "note": "[Compound 147, 1-(2-Acetyl-phenothiazin-10-yl)-2-(8-hydroxy-3,4-dihydro-1H-isoquinolin-2-yl)-ethanone]", "IC50": 2040}, {"molecule": "COc1ccc(N(C(=O)CN2CCc3cccc(O)c3C2)c2ccc(OC)cc2)cc1", "note": "[Compound 183, 2-(8-Hydroxy-3,4-dihydro-1H-isoquinolin-2-yl)-N,N-bis-(4-methoxy-phenyl)-acetamide]", "IC50": 2260}, {"molecule": "COc1cccc2c1CN(CC(=O)N1c3ccccc3OCC1c1ccccc1)CC2", "note": "(stereo not drawn) [Compound 71, 2-(8-methoxy-3,4-dihydro-1H-isoquinolin-2-yl)-1-(3-phenyl-2,3-dihydro-benzo[1,4]oxazin-4-yl)-ethanone]", "IC50": 2180}, {"molecule": "COc1cccc2c1CN(CC(=O)NCCCC(c1ccccc1)c1ccccc1)C2", "note": "[Compound 82, N-(4,4-diphenyl-butyl)-2-(4-methoxy-1,3-dihydro-isoindol-2-yl)-acetamide]", "IC50": 1060}, {"molecule": "COc1cccc2c1CN(CC(=O)N(C(C)C)C(C)C)CC2", "note": "[Compound 78, N,N-diisopropyl-2-(8-methoxy-3,4-dihydro-1H-isoquinolin-2-yl)-acetamide]", "IC50": 28500}, {"molecule": "Nc1cccc2c1CCN(CC(=O)NCC(c1ccccc1)c1ccccc1)C2", "note": "[Compound 123, 2-(5-Amino-3,4-dihydro-1H-isoquinolin-2-yl)-N-(2,2-diphenyl-ethyl)-acetamide]", "IC50": 2890}, {"molecule": "O=C(CN1CCc2cccc(O)c2C1)N(c1ccccc1)c1ccccc1", "note": "[Compound 149, 2-(8-Hydroxy-3,4-dihydro-1H-isoquinolin-2-yl)-N,N-diphenyl-acetamide]", "IC50": 9090}, {"molecule": "COc1cccc2c1CN(CC(=O)N1c3ccccc3CCc3ccccc31)CC2", "note": "[Compound 73, 1-(10,11-dihydro-dibenzo[b,f]azepin-5-yl)-2-(8-methoxy-3,4-dihydro-1H-isoquinolin-2-yl)-ethanone]", "IC50": 1280}, {"molecule": "N#Cc1cccc2c1CN(CC(=O)N1c3ccccc3Oc3ccccc31)C2", "note": "[Compound 220, 2-(2-Oxo-2-phenoxazin-10-yl-ethyl)-2,3-dihydro-1H-isoindole-4-carbonitrile]", "IC50": 800}, {"molecule": "COc1cccc2c1CN(CC(=O)N(Cc1ccccc1)Cc1ccccc1)CC2", "note": "[Compound 79, N,N-dibenzyl-2-(8-methoxy-3,4-dihydro-1H-isoquinolin-2-yl)-acetamide]", "IC50": 1020}]}]}
